This note sets out measurements from paper PMC5218480 (PLoS ONE, 2017).

In the assay the test system is MV-4-11 cells. The assay is described as follows: Gene expression microarray analysis (Affymetrix PrimeView) and GSEA. Details: RFU PODN (11730768_x_at) / Fold change /veh PODN (11730768_x_at) / RFU LINC00158 (11744669_a_at) / Fold change /veh LINC00158 (11744669_a_at) / RFU DUSP10 (11751237_a_at) / Fold change /veh DUSP10 (11751237_a_at) / RFU ID3 (11757404_x_at) / Fold change /veh ID3 (11757404_x_at) / RFU PLEKHG5 (11737974_s_at) / Fold change /veh PLEKHG5 (11737974_s_at) / RFU LRRC4B (11730491_at) / Fold change /veh LRRC4B (11730491_at) / RFU GIMAP4 (11747438_a_at) / Fold change /veh GIMAP4 (11747438_a_at) / RFU KRT8 (11758183_x_at) / Fold change /veh KRT8 (11758183_x_at) / RFU CNN1 (11734310_a_at) / Fold change /veh CNN1 (11734310_a_at) / RFU VPS37D (11726825_at) / Fold change /veh VPS37D (11726825_at) / RFU C10orf10 (11716522_x_at) / Fold change /veh C10orf10 (11716522_x_at) / RFU KIR2DL2 /// KIR2DL4 /// KIR2DL5A /// KIR2DL5B /// KIR2DS1 /// KIR2DS2 /// KIR2DS3 /// KIR2DS4 /// KIR3DL3 /// KIR3DL3 /// KIR3DS1 (11738374_at) / Fold change /veh KIR2DL2 /// KIR2DL4 /// KIR2DL5A /// KIR2DL5B /// KIR2DS1 /// KIR2DS2 /// KIR2DS3 /// KIR2DS4 /// KIR3DL3 /// KIR3DL3 /// KIR3DS1 (11738374_at) / RFU C1QL1 (11718748_at) / Fold change /veh C1QL1 (11718748_at) / RFU TMPRSS4 (11747572_a_at) / Fold change /veh TMPRSS4 (11747572_a_at) / RFU HAMP (11756126_x_at) / Fold change /veh HAMP (11756126_x_at) / RFU RNFT2 (11725882_a_at) / Fold change /veh RNFT2 (11725882_a_at) / RFU NR4A2 (11747474_a_at) / Fold change /veh NR4A2 (11747474_a_at) / RFU ABCC12 (11746883_a_at) / Fold change /veh ABCC12 (11746883_a_at) / RFU TMEM136 (11760407_x_at) / Fold change /veh TMEM136 (11760407_x_at) / RFU CLDN22 /// WWC2 (11732394_at) / Fold change /veh CLDN22 /// WWC2 (11732394_at) / RFU HLA-DPB1 (11760878_x_at) / Fold change /veh HLA-DPB1 (11760878_x_at) / RFU SPINT1 (11716480_a_at) / Fold change /veh SPINT1 (11716480_a_at) / RFU GAP43 (11754022_s_at) / Fold change /veh GAP43 (11754022_s_at) / RFU A4GNT (11735810_at) / Fold change /veh A4GNT (11735810_at) / RFU PRB3 (11715151_x_at) / Fold change /veh PRB3 (11715151_x_at) / RFU TUBB4B (11761932_at) / Fold change /veh TUBB4B (11761932_at) / RFU CAPN14 (11732068_a_at) / Fold change /veh CAPN14 (11732068_a_at) / RFU TMCC2 (11721928_a_at) / Fold change /veh TMCC2 (11721928_a_at) / RFU IRGQ (11745062_a_at) / Fold change /veh IRGQ (11745062_a_at) / RFU FAM174B (11720279_a_at) / Fold change /veh FAM174B (11720279_a_at) / RFU TMPRSS4 (11748680_a_at) / Fold change /veh TMPRSS4 (11748680_a_at) / RFU FAM212B (11763350_a_at) / Fold change /veh FAM212B (11763350_a_at) / RFU PLEKHG5 (11743358_a_at) / Fold change /veh PLEKHG5 (11743358_a_at) / RFU ZSCAN30 (11745921_a_at) / Fold change /veh ZSCAN30 (11745921_a_at) / RFU CMKLR1 (11741424_a_at) / Fold change /veh CMKLR1 (11741424_a_at) / RFU LOC101060620 /// MAPK8IP1 (11723275_at) / Fold change /veh LOC101060620 /// MAPK8IP1 (11723275_at) / RFU SPTSSB (11747773_x_at) / Fold change /veh SPTSSB (11747773_x_at) / RFU PRSS12 (11739890_at) / Fold change /veh PRSS12 (11739890_at) / RFU BIN1 (11741810_x_at) / Fold change /veh BIN1 (11741810_x_at) / RFU WNT11 (11732464_a_at) / Fold change /veh WNT11 (11732464_a_at) / RFU C10orf10 (11716521_a_at) / Fold change /veh C10orf10 (11716521_a_at) / RFU C5orf56 (11738089_at) / Fold change /veh C5orf56 (11738089_at) / RFU CYB561 (11721691_x_at) / Fold change /veh CYB561 (11721691_x_at) / RFU ANKRD19P (11752326_a_at) / Fold change /veh ANKRD19P (11752326_a_at) / RFU OR2T12 /// OR2T33 /// OR2T8 (11738714_s_at) / Fold change /veh OR2T12 /// OR2T33 /// OR2T8 (11738714_s_at) / RFU VCAN (11748164_a_at) / Fold change /veh VCAN (11748164_a_at) / RFU JSRP1 (11732532_at) / Fold change /veh JSRP1 (11732532_at) / RFU KRTAP10-11 (11738290_x_at) / Fold change /veh KRTAP10-11 (11738290_x_at) / RFU MYO3A (11730013_a_at) / Fold change /veh MYO3A (11730013_a_at) / RFU EBF3 (11725865_a_at) / Fold change /veh EBF3 (11725865_a_at) / RFU CAMK2N1 (11719241_x_at) / Fold change /veh CAMK2N1 (11719241_x_at) / RFU C5orf56 (11738088_a_at) / Fold change /veh C5orf56 (11738088_a_at) / RFU OLFML3 (11715873_a_at) / Fold change /veh OLFML3 (11715873_a_at) / RFU LOC100653217 /// NTM (11731650_a_at) / Fold change /veh LOC100653217 /// NTM (11731650_a_at) / RFU MAPK11 (11762145_a_at) / Fold change /veh MAPK11 (11762145_a_at) / RFU FIZ1 (11724087_x_at) / Fold change /veh FIZ1 (11724087_x_at) / RFU OASL (11726364_x_at) / Fold change /veh OASL (11726364_x_at) / RFU SOX15 (11748057_x_at) / Fold change /veh SOX15 (11748057_x_at) / RFU CD79A (11719716_a_at) / Fold change /veh CD79A (11719716_a_at) / RFU HIST1H1D (11736915_at) / Fold change /veh HIST1H1D (11736915_at) / RFU CASKIN2 (11723855_a_at) / Fold change /veh CASKIN2 (11723855_a_at) / RFU LOC730098 (11760151_x_at) / Fold change /veh LOC730098 (11760151_x_at) / RFU OR4N2 (11742367_at) / Fold change /veh OR4N2 (11742367_at) / RFU PRRT2 (11749266_a_at) / Fold change /veh PRRT2 (11749266_a_at) / RFU SNX32 (11753110_a_at) / Fold change /veh SNX32 (11753110_a_at) / RFU CDHR5 (11726645_a_at) / Fold change /veh CDHR5 (11726645_a_at) / RFU RCAN1 (11760418_a_at) / Fold change /veh RCAN1 (11760418_a_at) / RFU FAM167A (11723789_a_at) / Fold change /veh FAM167A (11723789_a_at) / RFU FAM26E (11764081_at) / Fold change /veh FAM26E (11764081_at) / RFU ISYNA1 (11749810_s_at) / Fold change /veh ISYNA1 (11749810_s_at) / RFU ACY1 (11761880_at) / Fold change /veh ACY1 (11761880_at) / RFU 11764098_at / Fold change /veh 11764098_at / RFU SAMD14 (11745864_x_at) / Fold change /veh SAMD14 (11745864_x_at) / RFU NPB (11741838_a_at) / Fold change /veh NPB (11741838_a_at) / RFU TMPRSS6 (11731388_a_at) / Fold change /veh TMPRSS6 (11731388_a_at) / RFU KRTAP10-2 (11738614_at) / Fold change /veh KRTAP10-2 (11738614_at) / RFU ARHGAP8 /// PRR5-ARHGAP8 (11727945_x_at) / Fold change /veh ARHGAP8 /// PRR5-ARHGAP8 (11727945_x_at) / RFU KRTAP5-7 /// NADSYN1 (11734609_at) / Fold change /veh KRTAP5-7 /// NADSYN1 (11734609_at) / RFU RASL12 (11751679_a_at) / Fold change /veh RASL12 (11751679_a_at) / RFU CDKN2B (11736163_a_at) / Fold change /veh CDKN2B (11736163_a_at) / RFU PRF1 (11729649_at) / Fold change /veh PRF1 (11729649_at) / RFU, ZNF638 /// ZNF638-IT1 / Fold change vs veh, ZNF638 /// ZNF638-IT1 / RFU, PANK3 / Fold change vs veh, PANK3 / RFU, SH3YL1 / Fold change vs veh, SH3YL1 / RFU, ZEB2 / Fold change vs veh, ZEB2 / RFU, NRIP1 / Fold change vs veh, NRIP1 / RFU, PTTG1IP / Fold change vs veh, PTTG1IP / RFU, CAPN2 / Fold change vs veh, CAPN2 / RFU, MED14 / Fold change vs veh, MED14 / RFU, SNORA58 / Fold change vs veh, SNORA58 / RFU, C1orf63 / Fold change vs veh, C1orf63 / RFU, LRRFIP1 / Fold change vs veh, LRRFIP1 / RFU, NDUFAF7 / Fold change vs veh, NDUFAF7 / RFU, SLC12A2 / Fold change vs veh, SLC12A2 / RFU, IBTK / Fold change vs veh, IBTK / RFU, ESF1 / Fold change vs veh, ESF1 / Fold change vs veh, TMEM50B / RFU, TAOK1 / Fold change vs veh, TAOK1 / RFU, ACBD3 / Fold change vs veh, ACBD3 / RFU, TMA16 / Fold change vs veh, TMA16 / RFU, RWDD3 / Fold change vs veh, RWDD3 / RFU, BCAT1 / Fold change vs veh, BCAT1 / RFU, EDEM3 / Fold change vs veh, EDEM3 / RFU, TMEM33 / Fold change vs veh, TMEM33 / RFU, WDR75 / Fold change vs veh, WDR75 / RFU, AHCTF1 / Fold change vs veh, AHCTF1 / RFU, TFRC / Fold change vs veh, TFRC / RFU, ZDHHC17 / Fold change vs veh, ZDHHC17 / RFU, NOM1 / Fold change vs veh, NOM1 / RFU, ARL8B / Fold change vs veh, ARL8B / RFU, ZBTB11 / Fold change vs veh, ZBTB11 / RFU, TAMM41 / Fold change vs veh, TAMM41 / RFU, KIAA1704 /// LOC100996395 / Fold change vs veh, KIAA1704 /// LOC100996395 / RFU, ING1 / Fold change vs veh, ING1 / RFU, TRMT61B / Fold change vs veh, TRMT61B / RFU, FUBP3 / Fold change vs veh, FUBP3 / RFU, TP53 / Fold change vs veh, TP53 / RFU, TNKS2 / Fold change vs veh, TNKS2 / RFU, ZFP14 / Fold change vs veh, ZFP14 / RFU, ACTR2 / Fold change vs veh, ACTR2 / RFU, PPP3R1 / Fold change vs veh, PPP3R1 / RFU, PIK3R1 / Fold change vs veh, PIK3R1 / RFU, HNRNPA1 / Fold change vs veh, HNRNPA1 / RFU, RNF170 / Fold change vs veh, RNF170 / RFU, ZNF28 / Fold change vs veh, ZNF28 / RFU, RNGTT / Fold change vs veh, RNGTT / RFU, OGT / Fold change vs veh, OGT / RFU, BRD1 / Fold change vs veh, BRD1 / RFU, MARS / Fold change vs veh, MARS / RFU, ZNF655 / Fold change vs veh, ZNF655 / RFU, FAHD1 / Fold change vs veh, FAHD1 / RFU, BDP1 / Fold change vs veh, BDP1 / RFU, LRRCC1 / Fold change vs veh, LRRCC1 / RFU, ARID1A / Fold change vs veh, ARID1A / RFU, ZNF146 / Fold change vs veh, ZNF146 / RFU, ZNF330 / Fold change vs veh, ZNF330 / RFU, GPN3 / Fold change vs veh, GPN3 / RFU, C9orf123 / Fold change vs veh, C9orf123 / RFU, N4BP2L2 / Fold change vs veh, N4BP2L2 / RFU, ARFIP1 / Fold change vs veh, ARFIP1 / RFU, FAM179B / Fold change vs veh, FAM179B / RFU, BCL10 / Fold change vs veh, BCL10 / RFU, UHRF1BP1L / Fold change vs veh, UHRF1BP1L / RFU, BET1 / Fold change vs veh, BET1 / RFU, CNOT2 / Fold change vs veh, CNOT2 / RFU, ZNF268 / Fold change vs veh, ZNF268 / Fold change vs veh, ZNF507 / RFU, DGCR2 / Fold change vs veh, DGCR2 / RFU, WDSUB1 / Fold change vs veh, WDSUB1 / Fold change vs veh, HSP90B1 /// MIR3652 / RFU, ADSS / Fold change vs veh, ADSS / RFU, GK / Fold change vs veh, GK / RFU, ZNF148 / Fold change vs veh, ZNF148 / RFU, TAF9 / Fold change vs veh, TAF9 / RFU, SLC1A5 / Fold change vs veh, SLC1A5 / RFU, SLMO2 / Fold change vs veh, SLMO2 / RFU, ABCC4 / Fold change vs veh, ABCC4 / RFU, LOC101060439 /// RAP1B / Fold change vs veh, LOC101060439 /// RAP1B / RFU, RFX7 / Fold change vs veh, RFX7 / RFU, GTPBP10 / Fold change vs veh, GTPBP10 / RFU, CNEP1R1 / Fold change vs veh, CNEP1R1 / RFU, BIVM-ERCC5 /// ERCC5 / Fold change vs veh, BIVM-ERCC5 /// ERCC5 / RFU, ILF3 / Fold change vs veh, ILF3 / RFU 11762660_at / Fold change /veh 11762660_at / RFU VCAN (11757783_s_at) / Fold change /veh VCAN (11757783_s_at) / RFU DDX43 (11728927_at) / Fold change /veh DDX43 (11728927_at) / RFU KRT8 (11758188_x_at) / Fold change /veh KRT8 (11758188_x_at) / RFU NKD1 (11759106_at) / Fold change /veh NKD1 (11759106_at) / RFU SRD5A1 (11742802_a_at) / Fold change /veh SRD5A1 (11742802_a_at) / RFU TPSAB1 /// TPSB2 (11721975_s_at) / Fold change /veh TPSAB1 /// TPSB2 (11721975_s_at) / RFU GSTM3 (11746129_a_at) / Fold change /veh GSTM3 (11746129_a_at) / RFU IL23R (11737362_x_at) / Fold change /veh IL23R (11737362_x_at) / RFU TMEM51 (11727254_a_at) / Fold change /veh TMEM51 (11727254_a_at) / RFU PIWIL2 (11732686_x_at) / Fold change /veh PIWIL2 (11732686_x_at) / RFU ORM1 (11744905_x_at) / Fold change /veh ORM1 (11744905_x_at) / RFU CCDC152 (11743942_at) / Fold change /veh CCDC152 (11743942_at) / RFU ECM1 (11717891_a_at) / Fold change /veh ECM1 (11717891_a_at) / RFU IL23R (11748794_a_at) / Fold change /veh IL23R (11748794_a_at) / RFU TNFAIP8L3 (11732012_x_at) / Fold change /veh TNFAIP8L3 (11732012_x_at) / RFU MBOAT4 (11741988_at) / Fold change /veh MBOAT4 (11741988_at) / RFU 11764193_at / Fold change /veh 11764193_at / RFU TMEM53 (11763286_at) / Fold change /veh TMEM53 (11763286_at) / RFU MAGEB2 (11727129_at) / Fold change /veh MAGEB2 (11727129_at) / RFU TMEM200A (11744735_a_at) / Fold change /veh TMEM200A (11744735_a_at) / RFU CCDC152 (11751479_a_at) / Fold change /veh CCDC152 (11751479_a_at) / RFU FAM211A (11726209_a_at) / Fold change /veh FAM211A (11726209_a_at) / RFU RGS16 (11746705_a_at) / Fold change /veh RGS16 (11746705_a_at) / RFU VCAN (11755009_s_at) / Fold change /veh VCAN (11755009_s_at) / RFU RHOB (11743442_s_at) / Fold change /veh RHOB (11743442_s_at) / RFU RGS16 (11720943_a_at) / Fold change /veh RGS16 (11720943_a_at) / RFU RGS16 (11720944_at) / Fold change /veh RGS16 (11720944_at) / RFU, VPS4B / Fold change vs veh, VPS4B / RFU, CREB1 / Fold change vs veh, CREB1 / RFU, DNAJC13 / Fold change vs veh, DNAJC13 / RFU, GNAQ / Fold change vs veh, GNAQ / RFU, CDK5R1 / Fold change vs veh, CDK5R1 / RFU, ZRANB3 / Fold change vs veh, ZRANB3 / RFU, CUL4A / Fold change vs veh, CUL4A / RFU, CCNY / Fold change vs veh, CCNY / RFU, UFL1 / Fold change vs veh, UFL1 / RFU, COG3 / Fold change vs veh, COG3 / RFU, DIAPH2 / Fold change vs veh, DIAPH2 / RFU, SKA2 / Fold change vs veh, SKA2 / RFU, AFF3 / Fold change vs veh, AFF3 / RFU, LMF1 / Fold change vs veh, LMF1 / RFU, IPO11 / Fold change vs veh, IPO11 / RFU, DFFB / Fold change vs veh, DFFB / RFU, FOXP1 / Fold change vs veh, FOXP1 / RFU, CARD8 / Fold change vs veh, CARD8 / RFU, STRN3 / Fold change vs veh, STRN3 / RFU, ADK / Fold change vs veh, ADK / RFU, RASSF2 / Fold change vs veh, RASSF2 / RFU, WIPF1 / Fold change vs veh, WIPF1 / RFU, LARP1B / Fold change vs veh, LARP1B / RFU, RASA1 / Fold change vs veh, RASA1 / RFU, RB1 / Fold change vs veh, RB1 / RFU, PPFIA1 / Fold change vs veh, PPFIA1 / RFU, MAT2A / Fold change vs veh, MAT2A / RFU, CCT5 / Fold change vs veh, CCT5 / RFU, WDR92 / Fold change vs veh, WDR92 / RFU, CUX1 / Fold change vs veh, CUX1 / RFU, TTC7A / Fold change vs veh, TTC7A / RFU, TMEM135 / Fold change vs veh, TMEM135 / RFU, DEPTOR / Fold change vs veh, DEPTOR / RFU, CPM / Fold change vs veh, CPM / RFU, DNAJB6 / Fold change vs veh, DNAJB6 / RFU, CACNA2D3 / Fold change vs veh, CACNA2D3 / RFU, DTX4 / Fold change vs veh, DTX4 / RFU, TFCP2 / Fold change vs veh, TFCP2 / RFU, GMCL1 /// GMCL1P1 / Fold change vs veh, GMCL1 /// GMCL1P1 / RFU, AEBP2 / Fold change vs veh, AEBP2 / RFU, SNHG1 /// SNORD22 /// SNORD25 /// SNORD26 /// SNORD27 /// SNORD28 /// SNORD29 /// SNORD31 / Fold change vs veh, SNHG1 /// SNORD22 /// SNORD25 /// SNORD26 /// SNORD27 /// SNORD28 /// SNORD29 /// SNORD31 / Fold change (Aza/veh), C12orf56 (ProbeSet 11735607_a_at) / Fold change (ACY-1035/veh), C12orf56 (ProbeSet 11735607_a_at) / Fold change (Aza/veh), FGFR1OP (ProbeSet 11751329_s_at) / Fold change (ACY-1035/veh), FGFR1OP (ProbeSet 11751329_s_at) / Fold change (Aza/veh), VPS36 (ProbeSet 11739960_a_at) / Fold change (ACY-1035/veh), VPS36 (ProbeSet 11739960_a_at) / RFU SYPL1 (11715823_x_at) / Fold change /veh SYPL1 (11715823_x_at) / RFU IGFBP7 (11715501_s_at) / Fold change /veh IGFBP7 (11715501_s_at) / RFU REEP3 (11722064_at) / Fold change /veh REEP3 (11722064_at) / RFU IGLL1 (11728026_x_at) / Fold change /veh IGLL1 (11728026_x_at): dose or concentration left out as unconfirmed. Particulars: MV-4-11 cells, 48 hours. The assay is classed as cell-based, human.

As for `Nc1ncn([C@@H]2O[C@H](CO)[C@@H](O)[C@H]2O)c(=O)n1` [azacitidine], the “Fold change /veh CNN1 (11734310_a_at)” value was found to be 1.15.
